Measurements from patent US7459466B2, “Substituted 2-(2,6-dioxopiperidin-3-yl)-phthalimides and -1-oxoisoindolines and method of reducing TNFα levels” (Celgene Corporation, priority 1997, dated 2008).

melting point: 268 to 269 °C
SMILES: CC1(N2C(=O)c3cccc(N)c3C2=O)CCC(=O)NC1=O (stereo not shown) [Example 7, 3-(3-Aminophthalimido)-3-methyl-piperidine-2,6-dione]
